Laboratory results as given in ChEMBL document CHEMBL4665846, “Piperlonguminine and Piperine Analogues as TrxR Inhibitors that Promote ROS and Autophagy and Regulate p38 and Akt/mTOR Signaling” (J Nat Prod, 2020).
Calls of active or inactive are those of the source. No cut-off for these calls is given here.

Legend:
Bel-7402 = test: Cytotoxicity against human Bel-7402 cells assessed as reduction in cell viability after 72 hrs by MTT assay; type: functional, cell-based; settings: for IC50: Bel-7402, 72 h
Bel7402/5-FU [1] = test: Cytotoxicity against human BEL-7402/5-FU cells assessed as reduction in cell viability after 72 hrs by MTT assay; type: functional, cell-based
HCT-116 = test: Cytotoxicity against human HCT-116 cells assessed as reduction in cell viability after 72 hrs by MTT assay; type: functional, cell-based; settings: HCT-116, 72 h
HGC-27 [2] = test: Cytotoxicity against human HGC-27 cells assessed as reduction in cell viability after 72 hrs by MTT assay; type: functional, cell-based; settings: HGC-27, 72 h
HepG2 = test: Cytotoxicity against human HepG2 cells assessed as reduction in cell viability after 72 hrs by MTT assay; type: functional, cell-based; settings: HepG2, 72 h
Bel7402/5-FU [3] = test: Induction of autophagy in human BEL-7402/5-FU cells assessed as down regulation of LC3-1 protein expression after 72 hrs by Western blot analysis; type: functional, cell-based; settings: dose microM 0.32-2, time 72.0 hrs
[4] = molecular target: T1, Thioredoxin reductase 1, cytoplasmic (Homo sapiens, UniProt Q16881); test: Inhibition of TrxR in human BEL-7402/5-FU cells by colorimetric assay; type: cell-based
T1 sequence (Q16881 whole entry): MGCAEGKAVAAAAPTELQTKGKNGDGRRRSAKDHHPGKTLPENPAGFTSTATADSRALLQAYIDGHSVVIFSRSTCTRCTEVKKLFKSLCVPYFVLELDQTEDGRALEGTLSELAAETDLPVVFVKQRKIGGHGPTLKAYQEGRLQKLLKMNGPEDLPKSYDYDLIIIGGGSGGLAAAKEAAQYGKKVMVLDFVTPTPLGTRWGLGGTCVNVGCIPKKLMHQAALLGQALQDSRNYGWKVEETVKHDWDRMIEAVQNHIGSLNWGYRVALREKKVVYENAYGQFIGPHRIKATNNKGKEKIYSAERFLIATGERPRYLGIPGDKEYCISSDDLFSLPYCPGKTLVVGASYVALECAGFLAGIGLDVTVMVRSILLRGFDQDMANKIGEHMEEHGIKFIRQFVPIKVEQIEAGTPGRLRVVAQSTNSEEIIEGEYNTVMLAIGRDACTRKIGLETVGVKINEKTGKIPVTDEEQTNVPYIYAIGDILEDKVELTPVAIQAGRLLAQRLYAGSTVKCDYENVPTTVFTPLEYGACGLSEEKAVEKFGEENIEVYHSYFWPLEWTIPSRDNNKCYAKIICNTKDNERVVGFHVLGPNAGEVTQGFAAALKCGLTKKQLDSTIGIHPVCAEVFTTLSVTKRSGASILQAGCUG

Bel7402/5-FU [5] = test: Induction of mitochondrial membrane potential loss in human BEL-7402/5-FU cells at 1 uM after 24 hrs by JC-1 staining based fluorescence microscopic method relative to piperlongumine; type: functional
[6] = Selectivity ratio of IC50 for cytotoxicity against human L02 cells to IC50 for cytotoxicity against human Bel-7402 cells; type: toxicity, cell-based; settings: L02 cells and Bel-7402 cells, read-out: Ratio IC50
Bel7402/5-FU [7] = test: Induction of ROS generation in human BEL-7402/5-FU cells at 10 uM using H2O2 as substrate preincubated for 24 hrs followed by substrate addition and measured after 6 hrs by ROS-Glo assay relative to control; type: functional
Bel7402/5-FU [8] = test: Induction of autophagy in human BEL-7402/5-FU cells expressing mRFP-eGFP-LC3 assessed as autophagosomes at 0.8 to 2 uM after 24 hrs by confocal laser scanning microscopic method; type: functional, cell-based; settings: dose microM 0.8-2, time 24.0 hrs
Bel7402/5-FU [9] = test: Induction of autophagy in human BEL-7402/5-FU cells assessed as up regulation of beclin-1 protein expression after 72 hrs by Western blot analysis; type: functional, cell-based; settings: dose microM 0.32-2, time 72.0 hrs
[10] = molecular target: T2, MAP kinase p38 (Homo sapiens) (UniProt O15264+Q15759+Q16539+P53778); test: Activation of p38 phosphorylation in human BEL-7402/5-FU cells incubated for 72 hrs by Western blot analysis; type: cell-based; settings: filed as activator, dose microM 0.32-2, time 72.0 hrs
[11] = Selectivity ratio of IC50 for cytotoxicity against human L02 cells to IC50 for cytotoxicity against human BEL-7402/5-FU cells
HGC-27 [12] = test: Potency index, ratio of piperlongumine IC50 to test compound IC50 for cytotoxicity against human HGC-27 cells; type: functional
Bel7402/5-FU [13] = test: Potency index, ratio of piperlongumine IC50 to test compound IC50 for cytotoxicity against human BEL-7402/5-FU cells; type: functional
[14] = molecular target: T3, Serine/threonine-protein kinase AKT (Homo sapiens) (UniProt P31751+Q9Y243+P31749); test: Inhibition of AKT phosphorylation in human BEL-7402/5-FU cells incubated for 72 hrs by Western blot analysis; type: cell-based; settings: dose microM 0.32-2, time 72.0 hrs
T3 sequence (P31749 whole entry, looked up): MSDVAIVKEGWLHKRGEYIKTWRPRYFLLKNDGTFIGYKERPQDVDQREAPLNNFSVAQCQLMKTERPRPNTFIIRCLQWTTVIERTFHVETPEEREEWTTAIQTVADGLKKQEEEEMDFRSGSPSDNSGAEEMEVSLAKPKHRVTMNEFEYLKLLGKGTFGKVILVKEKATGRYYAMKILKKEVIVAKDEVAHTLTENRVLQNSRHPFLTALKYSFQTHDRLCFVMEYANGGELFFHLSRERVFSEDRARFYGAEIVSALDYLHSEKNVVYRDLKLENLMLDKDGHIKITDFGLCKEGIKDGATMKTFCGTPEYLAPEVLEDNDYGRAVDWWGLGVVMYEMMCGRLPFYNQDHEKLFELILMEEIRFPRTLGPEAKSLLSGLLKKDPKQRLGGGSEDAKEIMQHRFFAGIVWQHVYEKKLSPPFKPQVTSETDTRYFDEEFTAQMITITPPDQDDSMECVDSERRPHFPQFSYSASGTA
T3 sequence (P31751 whole entry, looked up): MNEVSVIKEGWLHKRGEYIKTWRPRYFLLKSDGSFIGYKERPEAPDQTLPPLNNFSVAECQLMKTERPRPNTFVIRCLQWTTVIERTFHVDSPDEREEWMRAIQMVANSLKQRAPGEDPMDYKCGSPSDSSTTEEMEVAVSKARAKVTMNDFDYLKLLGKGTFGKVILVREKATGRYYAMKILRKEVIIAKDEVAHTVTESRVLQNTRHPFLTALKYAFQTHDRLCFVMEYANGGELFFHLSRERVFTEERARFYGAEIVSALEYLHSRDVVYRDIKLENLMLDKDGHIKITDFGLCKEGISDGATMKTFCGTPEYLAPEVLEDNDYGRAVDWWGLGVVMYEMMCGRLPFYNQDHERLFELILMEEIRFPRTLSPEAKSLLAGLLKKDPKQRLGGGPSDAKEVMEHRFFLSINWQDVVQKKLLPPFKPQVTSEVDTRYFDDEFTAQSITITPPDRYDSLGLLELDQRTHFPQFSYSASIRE
T3 sequence (Q9Y243 whole entry, looked up): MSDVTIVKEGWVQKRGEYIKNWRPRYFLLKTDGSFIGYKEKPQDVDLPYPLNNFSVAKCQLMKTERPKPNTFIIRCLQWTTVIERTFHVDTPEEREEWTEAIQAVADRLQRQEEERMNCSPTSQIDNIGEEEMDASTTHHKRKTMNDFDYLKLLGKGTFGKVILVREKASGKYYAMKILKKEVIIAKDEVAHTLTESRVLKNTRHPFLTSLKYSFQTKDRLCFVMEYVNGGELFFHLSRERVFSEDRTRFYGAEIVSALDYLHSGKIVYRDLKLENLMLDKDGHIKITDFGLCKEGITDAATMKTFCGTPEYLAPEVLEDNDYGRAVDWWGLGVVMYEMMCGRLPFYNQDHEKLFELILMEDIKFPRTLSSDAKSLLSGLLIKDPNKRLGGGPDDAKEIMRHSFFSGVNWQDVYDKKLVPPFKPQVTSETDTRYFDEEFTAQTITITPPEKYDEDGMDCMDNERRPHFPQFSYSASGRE

[15] = molecular target: Serine/threonine-protein kinase mTOR (Homo sapiens) (UniProt P42345); test: Inhibition of mTOR phosphorylation in human BEL-7402/5-FU cells incubated for 72 hrs by Western blot analysis; type: cell-based; settings: dose microM 0.32-2, time 72.0 hrs
Bel7402/5-FU [16] = test: Induction of autophagy in human BEL-7402/5-FU cells assessed as down regulation of P62 protein expression after 72 hrs by Western blot analysis; type: functional, cell-based; settings: dose microM 0.32-2, time 72.0 hrs
Bel7402/5-FU [17] = test: Induction of autophagy in human BEL-7402/5-FU cells expressing mRFP-eGFP-LC3 assessed as auto lysosomes at 0.8 to 2 uM after 24 hrs by confocal laser scanning microscopic method; type: functional, cell-based; settings: dose microM 0.8-2, time 24.0 hrs
[18] = molecular target: T4, Thioredoxin reductase 1, cytoplasmic (Homo sapiens) (UniProt Q16881); test: Potency index, ratio of piperlongumine IC50 to test compound IC50 for inhibition of TrXr in human BEL-7402/5-FU cells; type: cell-based
T4 sequence (whole entry): T1 sequence (Q16881 whole entry)

Bel7402/5-FU [19] = test: Induction of autophagy in human BEL-7402/5-FU cells assessed as up regulation of LC3-2 protein expression after 72 hrs by Western blot analysis; type: functional, cell-based; settings: dose microM 0.32-2, time 72.0 hrs
Bel7402/5-FU [20] = test: Induction of mitochondrial membrane potential loss in human BEL-7402/5-FU cells at 10 uM after 24 hrs by JC-1 staining based fluorescence microscopic method; type: functional, cell-based
[21] = molecular target: T2, MAP kinase p38 (Homo sapiens); test: Activation of p38 phosphorylation in human BEL-7402/5-FU cells at 2 uM incubated for 72 hrs by Western blot analysis; type: cell-based; settings: filed as activator
Bel7402/5-FU [22] = test: Induction of autophagy in human BEL-7402/5-FU cells expressing mRFP-eGFP-LC3 assessed as auto lysosomes at 2 uM after 24 hrs by confocal laser scanning microscopic method; type: functional, cell-based
[23] = molecular target: T3, Serine/threonine-protein kinase AKT (Homo sapiens); test: Inhibition of AKT phosphorylation in human BEL-7402/5-FU cells at 2 uM incubated for 72 hrs by Western blot analysis; type: cell-based
[24] = molecular target: Serine/threonine-protein kinase mTOR (Homo sapiens) (UniProt P42345); test: Inhibition of mTOR phosphorylation in human BEL-7402/5-FU cells at 2 uM incubated for 72 hrs by Western blot analysis; type: cell-based
Bel7402/5-FU [25] = test: Induction of autophagy in human BEL-7402/5-FU cells expressing mRFP-eGFP-LC3 assessed as autophagosomes at 2 uM after 24 hrs by confocal laser scanning microscopic method; type: functional, cell-based

Row | SMILES | IC50 (Bel-7402) [µM] | IC50 (Bel7402/5-FU [1]) [µM] | IC50 (HCT-116) [µM] | IC50 (HGC-27 [2]) [µM] | IC50 (HepG2) [µM] | also measured
1 | O=C1C=CCC/C1=C\C(Br)=C\c1ccccc1 | > 10 | > 10 | > 10 | > 10 | > 10 | –
2 | O=C1C=CCC/C1=C\C=C\c1ccc(Cl)cc1 | 3.2 | 3.2 | 3.5 | 4.8 | 3.7 | –
3 | COc1cc(/C=C/C=C2\CCC=CC2=O)ccc1O | 0.8 | 0.8 | 0.9 | 1.2 | 0.9 | Activity (Bel7402/5-FU [3]): Dose-dependent effect; IC50 [4]: 0.2 µM; fold change (FC) (Bel7402/5-FU [5]): 10; selectivity ratio [6]: 6; Activity (Bel7402/5-FU [7]): 50%; Activity (Bel-7402): Dose-dependent effect; Activity (Bel7402/5-FU [1]): Dose-dependent effect; Activity (Bel7402/5-FU [8]): Active; Activity (Bel7402/5-FU [9]): Dose-dependent effect; Activity [10]: Dose-dependent effect; Ratio IC50 [11]: 6; Ratio IC50 (HGC-27 [12]): 7; Ratio IC50 (Bel7402/5-FU [13]): 10; inhibition [14]: Dose-dependent effect; inhibition [15]: Dose-dependent effect; Activity (Bel7402/5-FU [16]): Dose-dependent effect; Activity (Bel7402/5-FU [17]): Active; Ratio IC50 [18]: 9; Activity (Bel7402/5-FU [19]): Dose-dependent effect; Activity (Bel7402/5-FU [20]): Active
4 | COc1cc(/C=C/C(=O)N2CCC=CC2=O)cc(OC)c1OC [PIPLARTINE] | – | – | 6.9 | 8.1 | – | Activity [21]: Active; Activity (Bel7402/5-FU [22]): Active; inhibition [23]: Active; inhibition [24]: Active; Activity (Bel7402/5-FU [25]): Active
5 | CN(C)c1ccc(/C=C/C=C2\CCC=CC2=O)cc1 | 0.9 | 1 | 1.2 | 1.5 | 1.1 | IC50 [4]: 0.2 µM; Ratio IC50 [18]: 9; Activity (Bel7402/5-FU [20]): Active
6 | O=C1C=CCC/C1=C\C=C\c1ccccc1[N+](=O)[O-] | 4.6 | 5.2 | 6.2 | 4.4 | 6.8 | –
7 | O=C1C=CCC/C1=C\C=C\c1ccccc1 | 4.2 | 4.2 | 5.4 | 4.5 | 7.1 | –
8 | COc1ccccc1/C=C/C=C1\CCC=CC1=O | 2.6 | 2.5 | 2.8 | 3.1 | 5.8 | –
9 | COc1ccc(/C=C/C=C2\CCC=CC2=O)cc1 | 1.4 | 1.7 | 2.1 | 3.2 | 2.4 | IC50 [4]: 0.4 µM; Activity (Bel7402/5-FU [20]): Active
10 | O=C1C=CCC/C1=C\C=C\c1ccc([N+](=O)[O-])cc1 | 4.2 | 4.5 | 5 | 5.2 | 4.9 | –
11 | O=C(/C=C/C=C/c1ccc2c(c1)OCO2)N1CCCCC1 [PIPERINE] | > 10 | – | – | – | > 10 | –
12 | Cc1ccc(/C=C/C=C2\CCC=CC2=O)cc1 | 6.3 | 5.8 | 7.2 | 8.1 | 8.6 | –
13 | O=C1C=CCC/C1=C\C=C\c1ccc(F)cc1 | 1.8 | 1.9 | 2.2 | 2.3 | 2.9 | IC50 [4]: 0.6 µM; Activity (Bel7402/5-FU [20]): Active
14 | O=C1C=CCC/C1=C\C=C\c1ccc(Br)cc1 | 3.6 | 4.3 | 5.2 | 4.5 | 6.1 | –
15 | CC(=O)Oc1ccc(/C=C/C=C2\CCC=CC2=O)cc1 | 3.8 | 4.1 | 4.6 | 4.9 | 4.5 | –
16 | CC(=C\c1ccccc1)/C=C1\CCC=CC1=O | 3.9 | 4.2 | 4.8 | 5.2 | 4.6 | –
